# In the supplement of paper PMC10307832:
# Assays:
# Experiment in all cases: relative viability (nuclei count vs DMSO), 5 days (fraction); higher = more cells survive
# Obatoclax + Vorinostat = compound: COC1=CC(c2cc3ccccc3[nH]2)=N/C1=C\c1[nH]c(C)cc1C [Obatoclax] + O=C(CCCCCCC(=O)Nc1ccccc1)NO [Vorinostat] (partner 1 µM)
# How it was run: (§1)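 For relative viability, nuclei counts in treated wells were divided by those in vehicle wells. Lung cancer cell lines had been pin-tool dosed in 1536-well plates the day after seeding and cultured for 5 days, then fixed and stained in one step (final 0.05% Triton X-100, 1% formaldehyde, 1 ug/ml Hoechst) and imaged at 4×. Doses were one drug alone or a fixed anchor-drug dose plus five library-drug doses (not always all listed) in √10 steps, and values are duplicate-plate medians.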
# Obatoclax + OSI-027 = compound: COC1=CC(c2cc3ccccc3[nH]2)=N/C1=C\c1[nH]c(C)cc1C [Obatoclax] + COc1cccc2cc(-c3nc([C@H]4CC[C@H](C(=O)O)CC4)n4ncnc(N)c34)[nH]c12 [OSI-027] (partner 0.5 µM)
# How it was run: as §1
# Obatoclax + Pictilisib = compound: COC1=CC(c2cc3ccccc3[nH]2)=N/C1=C\c1[nH]c(C)cc1C [Obatoclax] + CS(=O)(=O)N1CCN(Cc2cc3nc(-c4cccc5[nH]ncc45)nc(N4CCOCC4)c3s2)CC1 [Pictilisib] (partner 1 µM)
# How it was run: as §1
# [1] = compound: CC1=CC(=NN1)NC2=CC(=NC(=N2)/C=C/C3=CC=CC=C3)N4CCN(CC4)C + Cc1nc(NC(=O)N2CCC[C@H]2C(N)=O)sc1-c1ccnc(C(C)(C)C(F)(F)F)c1 [Alpelisib] (partner 2 µM)
# How it was run: as §1
Cell Line,relative viability (Obatoclax + Vorinostat; first compound 0.01 µM),relative viability (Obatoclax + Vorinostat; first compound 0.03162 µM),relative viability (Obatoclax + Vorinostat; first compound 0.1 µM),relative viability (Obatoclax + Vorinostat; first compound 0.3162 µM),relative viability (Obatoclax + Vorinostat; first compound 1 µM),relative viability (Obatoclax + OSI-027; first compound 0.01 µM),relative viability (Obatoclax + OSI-027; first compound 0.03162 µM),relative viability (Obatoclax + OSI-027; first compound 0.1 µM),relative viability (Obatoclax + OSI-027; first compound 0.3162 µM),relative viability (Obatoclax + OSI-027; first compound 1 µM),relative viability (Obatoclax + Pictilisib; first compound 0.01 µM),relative viability (Obatoclax + Pictilisib; first compound 0.03162 µM),relative viability (Obatoclax + Pictilisib; first compound 0.3162 µM),relative viability (Obatoclax + Pictilisib; first compound 1 µM),relative viability ([1]; first compound 0.08 µM),relative viability ([1]; first compound 0.253 µM),relative viability ([1]; first compound 0.8 µM),relative viability ([1]; first compound 2.53 µM),relative viability ([1]; first compound 8 µM),relative viability (Obatoclax + Pictilisib; first compound 0.1 µM)
HCC-78,0.384,0.441,0.551,0.438,0.527,0.393,0.341,0.586,0.539,0.378,0.179,0.207,0.158,0.2,0.315,0.371,0.295,0.275,0.117,–
HCC-366,0.352,0.398,0.312,0.353,0.191,0.961,0.847,0.827,0.821,0.208,0.136,0.151,0.159,0.12,0.376,0.646,0.363,0.0741,0.0115,0.172
HCC-827,0.879,0.726,0.711,0.25,0.82,0.846,0.733,0.806,0.675,0.778,1.04,0.948,0.916,1.04,0.934,0.984,1.02,0.874,0.475,0.953
HOP-62,0.573,0.575,0.639,0.741,0.403,0.858,0.848,0.754,0.819,0.583,0.649,0.803,0.761,0.757,0.937,1.09,0.931,0.942,0.164,0.449
IA-LM,0.993,0.89,1.05,0.905,1.11,–,–,–,–,–,0.345,0.326,0.113,0.0716,0.737,0.799,0.782,0.461,0.221,0.315
LC-2-ad,0.677,0.669,0.647,0.658,0.445,0.838,0.838,0.529,0.724,0.655,0.497,0.563,0.357,0.154,0.861,0.781,0.714,0.0868,0.0702,0.602
LCLC-97TM1,0.633,0.792,0.77,0.589,0.494,0.606,0.553,0.693,0.347,0.52,0.18,0.201,0.139,0.154,0.225,0.288,0.191,0.146,0.111,0.325
LCLC-103H,0.791,0.676,0.715,0.756,0.799,0.462,0.462,0.404,0.457,0.541,0.602,0.565,0.612,0.65,0.917,1.01,1.07,0.804,0.441,0.719
LK-2,0.3,0.247,0.253,0.296,0.411,0.261,0.214,0.225,0.256,0.192,0.566,0.639,0.502,0.581,1.1,0.668,0.966,0.605,0.211,0.655
LOU-NH91,0.982,0.889,0.709,0.885,0.65,0.727,0.719,0.566,0.714,0.683,0.541,0.503,0.469,0.533,0.68,0.816,0.762,0.61,0.404,0.505
LU99A,0.557,0.459,–,0.463,0.224,0.291,0.282,0.267,0.312,0.298,0.337,0.298,0.263,0.2,0.459,0.514,0.324,0.157,0.129,0.364
NCI-H522,0.891,0.794,0.793,0.967,0.973,0.7,0.718,0.71,0.734,0.775,–,–,–,–,–,–,–,–,–,–
NCI-H1299,–,–,–,–,–,–,–,–,–,–,0.74,0.937,0.447,0.129,1.06,1.08,1.04,1.1,0.605,0.637
NCI-H1563,–,–,–,–,–,0.741,0.797,0.87,0.705,0.619,0.615,0.639,0.655,0.634,0.896,0.893,0.782,0.555,0.392,0.644
NCI-H1623,–,–,–,–,–,0.429,0.434,0.47,0.389,0.471,–,–,–,–,–,–,–,–,–,–
NCI-H1648,0.557,0.479,0.739,0.357,0.822,0.253,0.226,0.413,0.269,0.232,–,–,–,–,–,–,–,–,–,–
NCI-H1650,0.494,0.661,0.61,0.417,0.301,0.677,0.552,0.644,0.386,0.225,0.572,0.749,0.412,0.315,–,–,–,–,–,0.571
NCI-H1703,–,–,–,–,–,–,–,–,–,–,0.263,0.221,0.203,0.2,0.302,0.32,0.205,0.128,0.0994,0.216
NCI-H1792,–,–,–,–,–,0.793,0.716,–,0.624,0.932,0.31,0.26,0.281,0.377,0.648,0.8,0.726,0.475,0.213,–
NCI-H2342,0.767,0.717,0.859,0.874,0.958,0.654,0.615,0.728,0.507,0.618,–,–,–,–,–,–,–,–,–,–
SW 900,0.493,0.489,0.509,0.389,0.372,0.54,0.512,0.709,0.383,0.258,–,–,–,–,–,–,–,–,–,–
